Measurements: article PMC7366380, “Discovery of a Potent and Selective Covalent Inhibitor and Activity-Based Probe for the Deubiquitylating Enzyme UCHL1, with Antifibrotic Activity” (Journal of the American Chemical Society, 2020)
Several values for one entry are separate records, joined by “and”; a condition that tells them apart may be missing. Identical values can stand only once.

How the values were obtained:
UCHL1 = target: T1, UCHL1 (Homo sapiens, UniProt P09936); experiment: biochemical
T1 sequence (P09936 1-223): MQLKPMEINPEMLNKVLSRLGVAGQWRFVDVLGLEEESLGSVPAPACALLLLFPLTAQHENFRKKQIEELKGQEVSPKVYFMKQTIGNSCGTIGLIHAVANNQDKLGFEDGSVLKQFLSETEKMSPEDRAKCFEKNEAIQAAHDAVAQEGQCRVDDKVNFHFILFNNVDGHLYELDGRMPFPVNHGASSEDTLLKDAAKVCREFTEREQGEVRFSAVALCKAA

[1] = target: DUBs and other proteins in HEK293 cells (Homo sapiens, UniProt Q93009); experiment: In-cell proteome-wide competitive ABPP, HEK293: other DUBs and proteins; details: replicates A-C; for Log2 reporter intensity values: USP7: DMSO substract (FC); for Log2 reporter intensity values: USP7, DMSO subtracted
Chain of DUBs and other proteins in HEK293 cells (Homo sapiens, UniProt Q93009) (Q93009 whole entry): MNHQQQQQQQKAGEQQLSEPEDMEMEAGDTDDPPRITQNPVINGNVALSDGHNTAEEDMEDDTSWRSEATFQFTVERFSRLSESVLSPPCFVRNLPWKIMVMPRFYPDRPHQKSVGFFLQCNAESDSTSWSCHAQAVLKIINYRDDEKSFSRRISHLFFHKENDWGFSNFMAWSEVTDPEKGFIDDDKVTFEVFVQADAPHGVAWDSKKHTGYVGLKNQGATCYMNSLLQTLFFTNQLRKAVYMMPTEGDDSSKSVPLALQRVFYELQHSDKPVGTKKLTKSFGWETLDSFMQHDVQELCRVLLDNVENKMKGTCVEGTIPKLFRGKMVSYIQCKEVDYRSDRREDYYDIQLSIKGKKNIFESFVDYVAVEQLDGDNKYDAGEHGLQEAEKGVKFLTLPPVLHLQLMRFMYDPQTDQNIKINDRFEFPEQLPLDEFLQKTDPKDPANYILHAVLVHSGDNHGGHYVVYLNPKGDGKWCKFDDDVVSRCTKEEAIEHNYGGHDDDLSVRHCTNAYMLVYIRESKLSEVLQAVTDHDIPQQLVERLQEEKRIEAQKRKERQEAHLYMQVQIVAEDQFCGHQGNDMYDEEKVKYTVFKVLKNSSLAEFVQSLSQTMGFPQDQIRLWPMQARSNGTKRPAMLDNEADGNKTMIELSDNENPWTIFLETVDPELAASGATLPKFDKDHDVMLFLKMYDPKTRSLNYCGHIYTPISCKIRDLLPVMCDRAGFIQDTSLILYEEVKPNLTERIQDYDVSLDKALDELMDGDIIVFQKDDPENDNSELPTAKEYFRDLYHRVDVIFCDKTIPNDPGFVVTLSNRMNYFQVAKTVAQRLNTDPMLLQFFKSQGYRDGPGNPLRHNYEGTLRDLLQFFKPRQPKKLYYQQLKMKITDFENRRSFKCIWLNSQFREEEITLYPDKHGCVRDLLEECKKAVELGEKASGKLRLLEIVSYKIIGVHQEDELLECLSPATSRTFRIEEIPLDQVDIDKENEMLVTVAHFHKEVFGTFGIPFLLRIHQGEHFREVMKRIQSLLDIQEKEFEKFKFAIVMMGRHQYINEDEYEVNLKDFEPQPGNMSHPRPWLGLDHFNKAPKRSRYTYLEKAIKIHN

[2] = target: DUBs and other proteins in HEK293 cells (Homo sapiens, UniProt Q96BN8); experiment: as above; details: replicates A-C; for Log2 reporter intensity values: OTULIN: DMSO substract (FC); for Log2 reporter intensity values: OTULIN, DMSO subtracted
Chain of DUBs and other proteins in HEK293 cells (Homo sapiens, UniProt Q96BN8) (Q96BN8 whole entry): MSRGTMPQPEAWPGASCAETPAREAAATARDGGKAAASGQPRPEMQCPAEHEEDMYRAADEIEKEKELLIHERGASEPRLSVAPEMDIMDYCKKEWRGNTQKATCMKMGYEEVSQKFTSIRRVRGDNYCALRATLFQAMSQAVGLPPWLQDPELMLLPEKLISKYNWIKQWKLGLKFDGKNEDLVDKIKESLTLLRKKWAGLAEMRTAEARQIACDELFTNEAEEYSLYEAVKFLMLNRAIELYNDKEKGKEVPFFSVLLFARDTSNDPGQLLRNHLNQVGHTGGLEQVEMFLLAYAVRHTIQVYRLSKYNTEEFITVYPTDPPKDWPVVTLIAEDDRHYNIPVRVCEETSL

[3] = target: DUBs and other proteins in HEK293 cells (Homo sapiens, UniProt O00303); experiment: as above; details: for Log2 reporter intensity values, EIF3F: TMT replicates; for Log2 reporter intensity values: EIF3F: competition with ABP 2, DMSO substract (FC); for Log2 reporter intensity values: EIF3F / Log2 reporter intensity values: replicates A-C; for Log2 t-test Difference / Log2 reporter intensity values: EIF3F
Chain of DUBs and other proteins in HEK293 cells (Homo sapiens, UniProt O00303) (O00303 whole entry): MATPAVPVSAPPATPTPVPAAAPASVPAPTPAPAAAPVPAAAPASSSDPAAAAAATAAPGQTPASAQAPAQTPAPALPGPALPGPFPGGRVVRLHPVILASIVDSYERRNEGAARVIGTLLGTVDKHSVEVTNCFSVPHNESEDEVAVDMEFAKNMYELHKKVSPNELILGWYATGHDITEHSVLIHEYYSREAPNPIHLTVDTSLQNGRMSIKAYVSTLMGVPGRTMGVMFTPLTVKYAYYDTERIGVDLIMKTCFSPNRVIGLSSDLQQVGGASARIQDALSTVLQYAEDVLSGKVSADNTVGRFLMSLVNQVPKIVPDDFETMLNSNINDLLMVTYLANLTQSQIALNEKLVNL

[4] = target: DUBs and other proteins in HEK293 cells (Homo sapiens, UniProt P51784); experiment: as above; details: replicates A-C; for Log2 reporter intensity values: USP11: DMSO substract (FC); for Log2 reporter intensity values: USP11, DMSO subtracted
Chain of DUBs and other proteins in HEK293 cells (Homo sapiens, UniProt P51784) (P51784 whole entry): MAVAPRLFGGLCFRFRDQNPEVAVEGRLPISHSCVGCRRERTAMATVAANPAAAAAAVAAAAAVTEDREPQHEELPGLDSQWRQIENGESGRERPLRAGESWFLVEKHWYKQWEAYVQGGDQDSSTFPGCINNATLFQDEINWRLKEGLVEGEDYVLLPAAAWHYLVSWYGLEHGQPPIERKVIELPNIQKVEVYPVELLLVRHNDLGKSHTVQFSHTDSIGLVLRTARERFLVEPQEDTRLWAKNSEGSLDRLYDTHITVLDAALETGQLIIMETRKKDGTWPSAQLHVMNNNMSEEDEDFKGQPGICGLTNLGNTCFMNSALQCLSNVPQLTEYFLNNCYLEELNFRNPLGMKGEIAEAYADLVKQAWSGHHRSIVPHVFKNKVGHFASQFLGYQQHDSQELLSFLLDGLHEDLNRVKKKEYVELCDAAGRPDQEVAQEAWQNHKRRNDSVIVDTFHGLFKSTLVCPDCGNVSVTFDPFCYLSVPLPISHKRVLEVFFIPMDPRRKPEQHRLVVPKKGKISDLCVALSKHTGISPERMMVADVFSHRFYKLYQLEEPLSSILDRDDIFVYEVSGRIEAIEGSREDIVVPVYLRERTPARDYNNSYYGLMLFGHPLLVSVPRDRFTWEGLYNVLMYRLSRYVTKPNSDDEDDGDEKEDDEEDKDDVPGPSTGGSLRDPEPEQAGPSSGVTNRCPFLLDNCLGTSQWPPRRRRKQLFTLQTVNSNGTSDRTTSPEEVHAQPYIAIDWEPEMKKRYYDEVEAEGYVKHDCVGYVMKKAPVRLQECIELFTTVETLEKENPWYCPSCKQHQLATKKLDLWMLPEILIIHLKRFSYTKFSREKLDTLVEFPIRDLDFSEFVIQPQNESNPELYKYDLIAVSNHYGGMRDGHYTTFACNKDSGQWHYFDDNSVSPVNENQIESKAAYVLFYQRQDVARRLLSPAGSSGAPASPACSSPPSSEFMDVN

USP34 = USP34 (Homo sapiens, UniProt Q70CQ2); experiment: Biochemical DUB selectivity profiling assay: USP34; details: Ub-Rho110 400 nM, buffer B; read-out: Biochemical IC50 range, USP34
Procedure: (§1) DUB Assay Substrate Substrate
(§2) Buffer Concentration (nM) […]
(§3) Sepharose® 4B resin (GE Healthcare).
(§4) 10 kDa molecular weight cut-off (MWCO)).
(§5) Fractions containing protein
(§6) Protein concentration was […]
(§7) reaction volume of 21 μL. […]
(§8) compound (final concentration 5 nM).
(§9) IC50 values were determined
(§10) Biochemical DUB selectivity profiling assays […]
(§11) in 40 µL total reaction volume.

BAP1 = target: T2, BAP1 (Homo sapiens, UniProt Q92560); experiment: biochemical
T2 sequence (Q92560 1-729): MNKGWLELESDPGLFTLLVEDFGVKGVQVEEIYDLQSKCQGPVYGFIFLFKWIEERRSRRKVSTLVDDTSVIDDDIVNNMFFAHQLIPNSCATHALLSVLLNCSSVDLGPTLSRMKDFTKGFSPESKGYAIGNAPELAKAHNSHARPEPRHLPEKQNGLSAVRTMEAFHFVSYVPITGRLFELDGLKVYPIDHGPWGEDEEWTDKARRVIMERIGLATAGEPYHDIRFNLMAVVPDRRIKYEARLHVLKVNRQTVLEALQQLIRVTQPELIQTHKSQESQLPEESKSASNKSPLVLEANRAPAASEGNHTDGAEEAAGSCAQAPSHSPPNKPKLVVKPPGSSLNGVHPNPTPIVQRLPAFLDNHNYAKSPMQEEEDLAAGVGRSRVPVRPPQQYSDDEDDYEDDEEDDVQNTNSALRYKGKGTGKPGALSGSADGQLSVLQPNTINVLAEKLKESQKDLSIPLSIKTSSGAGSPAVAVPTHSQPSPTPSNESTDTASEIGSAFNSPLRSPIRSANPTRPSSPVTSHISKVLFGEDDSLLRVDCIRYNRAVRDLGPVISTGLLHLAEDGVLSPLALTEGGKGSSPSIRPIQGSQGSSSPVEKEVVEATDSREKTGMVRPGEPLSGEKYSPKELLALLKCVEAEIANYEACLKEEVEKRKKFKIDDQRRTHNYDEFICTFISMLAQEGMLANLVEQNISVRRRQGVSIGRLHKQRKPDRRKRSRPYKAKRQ

TRABID = target: T3, TRABID (Homo sapiens, UniProt Q9UGI0); experiment: Biochemical DUB selectivity profiling assay: TRABID; details: Ub-Rho110 400 nM, buffer B; read-out: Biochemical IC50 range, TRABID
T3 sequence (Q9UGI0 1-708): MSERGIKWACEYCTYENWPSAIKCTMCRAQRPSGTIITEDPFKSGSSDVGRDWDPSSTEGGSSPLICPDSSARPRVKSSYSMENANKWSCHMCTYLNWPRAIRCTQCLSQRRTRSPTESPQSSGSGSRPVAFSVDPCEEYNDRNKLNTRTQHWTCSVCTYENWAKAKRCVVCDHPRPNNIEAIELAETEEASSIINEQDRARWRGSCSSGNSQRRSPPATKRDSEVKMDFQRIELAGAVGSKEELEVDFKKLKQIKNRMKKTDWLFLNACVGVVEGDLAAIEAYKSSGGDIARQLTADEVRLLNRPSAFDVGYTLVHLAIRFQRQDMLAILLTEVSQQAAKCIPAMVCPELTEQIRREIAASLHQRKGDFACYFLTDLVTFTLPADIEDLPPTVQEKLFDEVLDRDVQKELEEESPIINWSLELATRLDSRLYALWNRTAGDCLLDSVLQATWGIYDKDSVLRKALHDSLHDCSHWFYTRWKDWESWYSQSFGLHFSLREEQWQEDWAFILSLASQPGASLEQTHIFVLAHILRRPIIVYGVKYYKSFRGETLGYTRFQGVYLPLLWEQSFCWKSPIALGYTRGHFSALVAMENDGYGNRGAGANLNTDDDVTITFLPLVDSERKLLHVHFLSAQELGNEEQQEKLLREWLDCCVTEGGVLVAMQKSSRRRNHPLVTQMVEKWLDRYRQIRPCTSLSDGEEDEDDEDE
Procedure: as §1, §2, §3, §4, §5, §6, §7, §8, §9, §10, §11

[5] = Biochemical IC50 range, UCHL1, Ub-Lys-TAMRA 50 nM, buffer A
[6] = UCHL1 IC50 (FP, 95% CI), UCHL1 5 nM, 30 min preincubation, Ub-Lys-TAMRA 50 nM
[7] = 1 at 1 μM, competition with ABP 2
[8] = 1 at 4 μM, competition with ABP 2

N#CN1CCC[C@H]1C(=O)N1CCc2c(-c3c[nH]c4ncccc34)cccc21 [Compound 1]
IC50 (UCHL1; [5]): < 100 nM
IC50 (UCHL1; [6]): 90 nM
Log2 reporter intensity values: USP7 [1, 7]: 1.015 and 0.998 and 1.012
Log2 reporter intensity values: USP7 [1, 8]: 1.024 and 0.9908 and 1.009
Log2 reporter intensity values ([1]; 1_1 μM): 0.01464 and -0.002291 and 0.01166
Log2 reporter intensity values ([1]; 1_4 μM): 0.02367 and -0.009481 and 0.008925
Log2 reporter intensity values ([1]; 1 at 1 μM): 0.02137 and -0.002902 and 0.01712
Log2 reporter intensity values ([1]; 1 at 4 μM): 0.03415 and -0.01333 and 0.01322
Log2 reporter intensity values: OTULIN [2, 7]: 1.158 and 1.113 and 1.037
Log2 reporter intensity values: OTULIN [2, 8]: 1.068 and 1.004 and 1.156
Log2 reporter intensity values ([2]; 1_1 μM): 0.1579 and 0.1121 and 0.03603
Log2 reporter intensity values ([2]; 1_4 μM): 0.06743 and 0.003361 and 0.1557
Log2 reporter intensity values ([2]; 1 at 1 μM): 0.2122 and 0.154 and 0.0518
Log2 reporter intensity values ([2]; 1 at 4 μM): 0.09485 and 0.0056 and 0.2094
Log2 reporter intensity values, EIF3F ([3]; 1 μM 1 (60 min) + 20 nM ABP 2 (10 min), All values): -0.05755 and -0.0632 and -0.06224
Log2 reporter intensity values, EIF3F ([3]; 1 μM 1 (60 min) + 20 nM ABP 2 (10 min), DMSO subtracted): -0.048 and -0.05365 and -0.05269
Log2 reporter intensity values, EIF3F ([3]; 4 μM 1 (60 min) + 20 nM ABP 2 (10 min), All values): 0.06402 and -0.06596 and 0.05418
Log2 reporter intensity values, EIF3F ([3]; 4 μM 1 (60 min) + 20 nM ABP 2 (10 min), DMSO subtracted): 0.07357 and -0.05641 and 0.06373
Log2 reporter intensity values: EIF3F ([3]; 1 at 1 μM): 0.9673 and 0.9635 and 0.9641
Log2 reporter intensity values: EIF3F ([3]; 1 at 4 μM): 1.052 and 0.9617 and 1.045
Log2 t-test Difference ([3]; 1 - 1 μM): -0.1421
Log2 t-test Difference ([3]; 1 - 4 μM): -0.06374
Log2 reporter intensity values ([3]; 1_1 μM, DMSO subtracted): -0.03315 and -0.03692 and -0.03628
Log2 reporter intensity values ([3]; 1_4 μM, DMSO subtracted): 0.0519 and -0.03877 and 0.04475
Log2 reporter intensity values ([3]; 1 at 1 μM, DMSO subtracted): -0.048 and -0.05365 and -0.05269
Log2 reporter intensity values ([3]; 1 at 4 μM, DMSO subtracted): 0.07357 and -0.05641 and 0.06373
Log2 reporter intensity values: USP11 [4, 7]: 1.082 and 1.001 and 1.048
Log2 reporter intensity values: USP11 [4, 8]: 1.053 and 0.9981 and 1.068
Log2 reporter intensity values ([4]; 1_1 μM): 0.08158 and 0.0009743 and 0.04766
Log2 reporter intensity values ([4]; 1_4 μM): 0.05297 and -0.002249 and 0.06752
Log2 reporter intensity values ([4]; 1 at 1 μM): 0.1136 and 0.00189 and 0.06764
Log2 reporter intensity values ([4]; 1 at 4 μM): 0.07493 and -0.002761 and 0.09472
IC50 (USP34): 1000 to 10000 nM
IC50 (BAP1): 1000 to 10000 nM
IC50 (TRABID): > 10000 nM

C#Cc1cnc2[nH]cc(-c3cccc4c3CCN4C(=O)[C@@H]3CCCN3C#N)c2c1 [Compound 2]
IC50 (UCHL1; [5]): < 100 nM
IC50 (UCHL1; [6]): 38 nM
Log2 reporter intensity values: USP7 ([1]; 20 nM ABP 2 alone): 0.9183 and 1.036 and 1.009
Log2 reporter intensity values ([1]; 20 nM ABP 2): 0.05058 and 0.01361 and -0.082 and 0.009195
Log2 reporter intensity values: OTULIN ([2]; 20 nM ABP 2 alone): 0.9844
Log2 reporter intensity values ([2]; 20 nM ABP 2): 0.01067 and 0.1122 and -0.02265 and 0.006896 and 0.08034 and -0.01611
Log2 reporter intensity values: USP11 ([4]; 20 nM ABP 2 alone): 0.9204 and 1.006 and 0.9863
Log2 reporter intensity values ([4]; 20 nM ABP 2): -0.1196 and 0.008385 and -0.01996 and -0.07989 and 0.005492 and -0.01408
IC50 (USP34): 1000 to 10000 nM
IC50 (TRABID): > 10000 nM

CC(=O)O/N=C1\C(=O)N(Cc2cc(Cl)ccc2Cl)c2ccc(Cl)cc21 [LDN-57444, reference compound]
IC50 (USP34): > 10000 nM
IC50 (BAP1): > 10000 nM
IC50 (TRABID): > 10000 nM
